The record followed here is patent US5338684A, “Stable aqueous FK506 standards” (Abbott Laboratories, priority 1993, dated 1994).

Data set [1] is classed as physicochemical. The text has this:
The stability of the composition can be determined by measuring the decrease in the measured amount of FK506 in the aqueous composition with time. […] In a composition of the invention useful as a standard for a diagnostic assay, generally the amount of FK506 initially present in the aqueous composition maintained at a temperature of 37 degrees Celsius will decrease over a period of 7 days by less than 20 percent by weight, and typically by less than 5 percent by weight

The format of data set [2] is physicochemical. From the text: Whole blood has the undesirable characteristic of thickening at elevated temperatures. Thickened blood can be difficult or impossible to pipet which can make a blood matrix completely unsuitable as a standard for a diagnostic assay.
Whole blood (plus sufficient EDTA to prevent coagulation) was lysed by freeze-thaw cycles and diluted with saline so as to be at final saline concentrations of 10, 20 and 30 percent by volume. FK506 in methanol was spiked into the matrix to make standards and the stability was evaluated at 37 degrees Celsius as described above.
The source holds these as a separate data set.

Data set [3] is classed as physicochemical, sheep. On the procedure: (§1) This example illustrates the suitability of non-human blood sources for a composition of the invention. In this example both sheep blood (non-lysed as in Example 1 above and containing the anti-coagulant citrate) and horse blood (lysed by freeze-thaw cycles as in Example 2 above and containing the anti-coagulant EDTA) were utilized. FK506 standards were made in each matrix and stability was evaluated at 37 degrees Celsius as described above.

The format of data set [4] is physicochemical. On the procedure: FK506 was spiked into plasma and serum and the stability at 37 degrees Celsius was evaluated as for human blood and the synthetic matrix above. The plasma contained sufficient EDTA as anti-coagulant to prevent coagulation.
Comparative plasma and serum matrices were prepared by adding a stock standard of FK506 in methanol (10 micrograms FK506/ml) to the plasma and serum matrices to provide two initial concentrations of 41.8 ng/ml (high) and 18.4 ng/ml (low) for the plasma and two initial concentrations of 44.9 ng/ml (high) and 22.4 ng/ml (low) for the serum. As for the human blood and synthetic matrix above, the stability of these two different matrices was evaluated by placing the four different standards at 37 degrees Celsius and determining the concentration of FK506 present as a function of time.
The source holds these as a separate data set.

The format of data set [5] is physicochemical, human. On the procedure:
This example illustrates the preparation of an aqueous composition of the invention utilizing whole human blood containing the anticoagulant, ethylenediamine tetraacetic acid (EDTA). It also illustrates a comparison of the stability of FK506 in the aqueous composition of the invention with the stability of FK506 in a synthetic blood matrix (prepared by adding hemoglobin to human serum) and with the stability of FK506 in plasma and serum
A synthetic blood matrix was prepared by adding hemoglobin (10 grams/deciliter) to human serum. A stock standard of FK506 in methanol (10 micrograms FK506/ml) was spiked into this synthetic matrix to provide two initial concentrations of 32.2 nanograms FK506/ml (ng/ml)(high) and 7.5 ng/ml (low). A composition of the invention was prepared by adding the stock standard of FK506 in methanol (10 micrograms FK506/ml) into human whole blood (containing sufficient EDTA to prevent coagulation ) to provide two initial concentrations of 47.1 ng/ml (high) and 9.3 ng/ml (low). The stability of these two different matrices was evaluated by placing the four different standards at 37 degrees Celsius and determining the concentration of FK506 present as a function of time.

The format of data set [6] is physicochemical, human. The text has this:
This example illustrates the utilization of human packed red blood cells (with EDTA as anticoagulant) and saline in an aqueous, FK506-containing composition of the invention. It also illustrates the enhanced stability of FK506 in this composition of the invention compared to the stability of FK506 in comparative serum and plasma compositions.
Human packed red blood cells (with sufficient EDTA added to prevent coagulation) were mixed in equal parts by volume with saline (0.9 percent by weight sodium chloride solution), human plasma or human serum. Three freeze-thaw cycles were done on each matrix combination to lyse the cells. The pH on each matrix was adjusted to pH 6.0 with 3 Molar (M) citric acid. FK506 standards were made in each matrix and stability at […] was evaluated as described above.
The source holds these as a separate data set.

Data set [7] deals with monoclonal antibody directed against FK506 (Fujisawa clone #1-60-46). Kind of data set: Microparticle capture enzyme immunoassay (MEIA) for FK506, competitive with FK506-alkaline phosphatase conjugate. The class given is binding. As to conditions: pH 6.0. On the procedure: In general an analyte such as FK506 is determined in an MEIA by quantifying the rate of fluorescence development when a fluorogenic substrate is converted by the action of an enzyme-labeled conjugate. MEIAs as run on the IMx® analyzer generally utilize a reagent pack containing microparticle reagent, an alkaline phosphatase conjugate, fluorogenic substrate and, optionally, a diluent buffer specific for the FK506 assay. Submicron microparticles coated with a capture molecule specific for FK506 being measured are used as the solid phase. […] The effective surface area of these polystyrene latex microparticles, which number in the millions, is several-fold greater than that of a 1/4 inch diameter polystyrene bead commonly used in other commercial immunoassays. Because of this large surface area and the very small diffusion distance between analyte and the capture molecules on the surface of the microparticles, the capture phase of the MEIA typically reaches equilibrium within several minutes, allowing excellent throughput.
Unlike homogeneous fluorescent polarization immunoassays, the heterogeneous MEIA requires a separation step. After incubation of the microparticles with specimen, the microparticles are separated from the reaction mixture by transferring it to an inert glass fiber matrix in the MEIA reaction cell. This glass fiber surface provides a precisely located mechanical support for the microparticles during the subsequent optical read phase of the assay. The microparticles and bound analyte adhere strongly to the glass fibers, while the remaining specimen components are washed through the pores of the matrix to an underlying absorbent blotter. Detection of the immune complex on the glass fiber matrix is accomplished using an alkaline phosphatase-labeled conjugate. Conjugate is either incubated with the specimen and microparticles in a typical one step IMx® MEIA or applied to the matrix after the initial wash step. It is contemplated that an MEIA for FK506 run on the IMx® analyzer can be configured either in a "sandwich" or competitive assay format. […]
In either configuration, the specifically bound alkaline phosphatase on the microparticles is detected by addition of a fluorogenic substrate, typically 4-methylumbelliferyl phosphate (4-MUP), to the matrix. […] The liberated 4-MU is detected by the IMx® MEIA optics assembly, a front surface fluorometer designed to detect fluorescence of low concentrations of 4-MU without interference by fluorescence of 4-MUP at 367 nanometers (nm). A system of lenses and optical filters focuses filtered light (365 nm wavelength) from a mercury arc lamp onto the surface of the matrix and focuses emitted fluorescence from 4-MU (448 nm wavelength) onto a photomultiplier tube. About 5% of the excitation light is detected by a photodiode, allowing normalization of the fluorescence data and generation of a control signal used by the lamp power supply to maintain the intensity of the excitation light within 5% over the useful life of the lamp. The instrument then uses linear regression analysis to convert the data from 8 successive determinations of 4-MU fluorescence to a rate, which rate is proportional to the concentration of alkaline phosphatase conjugate specifically bound to the microparticles, from which the concentration of FK506 in the sample can be determined. […]

The format of data set [8] is physicochemical, horse. On the procedure:
as §1

Data set [9] is classed as physicochemical, human. On the procedure:
This example illustrates the utilization of blood cell fragments according to the invention to stabilize FK506 in an aqueous matrix. Human blood cells were lysed by sonication or by repetitive freeze-thaw cycles respectively. Lysis was judged complete by the absence of blood cells under microscopic examination. Except for the utilization of lysed human blood cells instead of whole blood cells, the FK506 standards were prepared in the same manner as in Example 1 above.
The source holds these as a separate data set.

Setting [10] is: aqueous blood cell composition, 168 h.

On to `C=CC[C@@H]1/C=C(\C)C[C@H](C)C[C@H](OC)[C@H]2O[C@@](O)(C(=O)C(=O)N3CCCC[C@H]3C(=O)O[C@H](/C(C)=C/[C@@H]3CC[C@@H](O)[C@H](OC)C3)[C@H](C)[C@@H](O)CC1=O)[C@H](C)C[C@@H]2OC` [FK506], for which the “stability at acidic pH” value in data set [1] is “enhanced somewhat at acidic pH”. In addition, the “stability in aqueous matrices” value in data set [1] is recorded as “unstable”. For the same compound, in data set [1] (setting [10]), the “decrease of the amount of FK506 initially present, generally” value is recorded as “less than 20 percent by weight”. For the same compound, in data set [1] (setting [10]), the “decrease of the amount of FK506 initially present, typically” value is listed as “less than 5 percent by weight”. Besides, in [2], the “stability in saline-diluted lysed blood” value was “good stability”. Further, the “stability in sheep blood” value in data set [3] was “excellent stability”. Further, the “stability in plasma” value in data set [4] was “very unstable in plasma and serum”. In data set [4], the “stability in serum” value was “very unstable in plasma and serum”. Besides, in data set [5], the “stability in blood vs synthetic matrix” value is “much more stable in blood than in the synthetic matrix”. The “stability in packed red cell matrices” value in data set [6] is on record as “more stable in any of them relative to serum, plasma or synthetic blood matrices”. In [6] (saline vs plasma or serum dilution, 45 degrees Celsius), the “most stable matrix” value is on record as “the most stable matrix was blood diluted with saline”. The “Fluorescent Rate” value in data set [7] (10 ng/ml FK506 in lysed human whole blood) worked out at 288; in data set [7] (20 ng/ml FK506 in lysed human whole blood), 197; in [7] (30 ng/ml FK506 in lysed human whole blood), 150; in data set [7] (50 ng/ml FK506 in lysed human whole blood), 111; in data set [7] (80 ng/ml FK506 in lysed human whole blood) it was 79. Also, in data set [8], the “stability in horse blood” value is “excellent stability”. Moreover, the “stability in lysed blood” value in data set [9] is “more stable at 45 degrees Celsius than FK506 standards in serum, plasma or synthetic blood at 37 degrees Celsius”.
